From patent US5041535A, “Antileukemic and immunostimulant peptides” (Richter Gedeon Vegyeszeti Gyar Rt., priority 1986, dated 1991)

How the values were obtained:
[1] = system: human K-562 erythroleukaemical cell-line; assay: Inhibition of the proliferation of tumor cells (K-562); format: cell-based; settings: 72nd hour after treatment, percentage of the control
Experimental: In the test human K-562 erythroleukaemical cell-line is used (Karolinska Institute, Stockholm). Incubation is carried out in a nutrient medium designated RPMI-1640 (manufactured by Flow, Great Britain) comprising 10% of foetal calf serum, at a temperature of 37° C., in a humidified incubator containing 3% of carbon dioxide, in plastic dishes. Every point of measurement corresponds to the average of the data measured in three dishes, each. At the beginning of the test the dilution amounts to 0.5×10^5 cells/ml. Treatment is carried out 24 hours after dilution in a manner that the medium is not changed after the treatment. The cells are counted for 96 hours after dilution every 24th hour wit the aid of a Buerker chamber.
Under the effect of the peptide in the 24th hour after treatment the cell number stagnates and later it increases to a very small extent. […] The tumor-cell division inhibiting effect of the new peptides is summarized in Table 1 (72 hours after treatment). The rate of inhibition is expressed in the percentage of the control. It clearly appears from the data of the Table that the tested peptides inhibit the proliferation of human K-562 erythroleukaemic cells.

[2] = system: Lewis Lung Tumor (LLT); assay: Tumor metastasis inhibiting effect; format: in vivo, C57 B1 mice; settings: single 10 mg/kg i.p., 18th day
Experimental: 20 g male C57 B1 mice divided into groups consisting of 5 animals each, are injected with a Lewis Lung Tumor (LLT) cell-suspension. The said cell-suspension is administered into the tail vein, in a dose of 10^5 cells/mouse. Twenty-four hours after the administration of the tumor-cells the animals are treated with a single 10 mg/kg i.p. dose of the test compound. On the 18th day following infection with the tumor the animals are sacrificed and the cancer noduli appearing in the lungs are counted under a stereomicroscope. Animals not treated with peptide serve as control. In Table 8 the results obtained with Glp-Lys-NH2 dipeptide amide are disclosed.

[3] = system: inflammation induced by oxozolone; assay: Dermatitis test induced with oxazolone; format: in vivo, CFLP mice; settings: 24th hour after treatment, ear weight increase
Experimental: In this test a modified pharmacological model of D. P. Evans et al. [Br. J. Pharmac. 43, 403-488 (1971)] is used.
The abdominal skin of male CFLP mice weighing 20-22 g is painted after the removal of the hair with 0.1 ml of a 2% solution of oxazolon (4-ethoxymethyl-2-phenyl-oxazoline, manufacturer Sigma) in sunflower oil. On the right ear of the test animals 7 days after sensitization (painting) inflammatory reaction is induced with the aid of 10 μl of a 2% acetonous oxazolone solution and simultaneously the animals are treated with a 1 or 2 mg/kg, respectively, i.p. does of the test compound. The test compound is dissolved in a physiological sodium chloride solution in such a concentration that the active ingredient content corresponding to the dose should be dissolved in a volume of 0.5 ml/10 g animal body weight.
The antiinflammatory effect is determined as follows: the animals are sacrificed in the 24th hour after treatment, whereupon the right and left ears are cut off. The percentual weight increase of the right ear related to the left ear is characteristic of the rate of inflammation induced during the test, while the percentual reduction of weight increase of the treated animals related to the untreated control is proportional to the antiinflammatory effect. In Table 4 the reduction of weight increase (antiinflammatory effect) achieved by the test compounds is disclosed, as the percentage of the untreated control.

[4] = system: antibody production inhibited by cyclophosphamide; assay: Effect on antibody production in mice treated with cyclophosphamide; format: in vivo, CELP mice; settings: cyclophosphamide 100 mg/kg i.p., titer on 6th day
Experimental: The effect on in vivo antibody production is tested on CELP mice treated with a 100 mg/kg body weight dose of cyclophosphamide {2-[bis-(2-chloroethyl)-amino]-tetrahydro-2H-1,3,2-oxaza -phosphorine-2-oxide; method: Z. Naturforsch. 35B, 1476 (1980)}. The mice are intraperitoneally immunized with a 1% sheep erythrocyte suspension previously washed three times with a 0.9% sodium chloride solution after 10 minutes of centrifuging at 2,500 r.p.m. Simultaneously with immunization carried out on the 0. day, the activity of the immune system is suppressed by means of treatment with a 100 mg/kg i.p. does of cyclophosphamide. On the 3rd day of the test the peptides are administered to the animals intraperitoneally in a dose of 5, 50 and occasionally 100 mg/kg respectively. On the 6th day of the test blood is taken retroorbitally from the mice and the anti-sheep erythrocyte titer of the serum is determined. […] The effect of the peptides is expressed as percentage of the relief of inhibition (G %).

[5] = system: lymphocytes inhibited by Azathioprine; assay: E-rosetta test inhibited by Azathioprine; format: cell-based
Experimental: Inhibition of the proliferation of T-lymphocytes is tested in the E-rosetta test inhibited by Azathioprine [6-(1-methyl-4-nitroimidazole-5-yl-thio)-purine; Thymus 1, 195 (1980)].
To 200 μl of a healthy lymphocyte cell-suspension 500 μl/ml of Azathioprine and 200 μl of a separate dilution of the test compound in HBBS buffer (manufacturer: Flow, Great Britain) are added (concentration range: 10^-3 to […]). The mixture is incubated at a temperature of 37° C. in air containing 5% of carbon dioxide for 60 minutes, whereupon 200 μl of a 1% sheep erythrocyte suspension are added. The mixture thus-obtained is centrifuged at 1,000 r.p.m. for 5 minutes, the supernatant is removed by decanting and in the suspension the lymphocytes forming E-rosetta are counted under a microscope from at least 400 cells.
Under the effect of the peptides the E-rosetta forming activity of the lymphocytes inhibited by Azathioprine increases to different extent. […] It appears from the data of Table 2 that the tested peptides increase the E-rosetta forming capacity of inhibited lymphocytes, i.e. the peptides of the present invention show immunostimulant effect.

[6] = system: peritoneal exsudatum cells (PEC); assay: Effect on phagocytosis, in vivo; parameters: species or system CFLP mice; settings: 24th hour after treatment, control 179.7 ± 3.6
Experimental: Male CFLP mice having a body of weight of 22-23 g are divided into four groups of 8-12 animals each. The animals of the test groups are treated with Glp-Lys-NH2 -mandelate for 2 days. The treatment is carried out by administering a 0.1, 1 or 10 mg/kg s.c. dose, respectively, of the active ingredient once a day, in the form of a solution in a physiological sodium chloride solution. In the 24th hour after the last treatment the yeast cell incorporating capacity of the peritoneal exsudatum cells (PEC) is determined. In the Table the x±S.E.M. data relate to the number of yeast cells incorporated into the 100 PEC cells.

[7] = system: PEC cells; assay: Phagocytosis inhibited by cyclophosphamide, non-simultaneously administered cyclophosphamide and peptide; format: in vivo, CFLP mice; settings: CY 80 mg/kg p.o., CY alone 112.1 ± 6.4, control 221 ± 9.4
Experimental: (§1) Male CFLP mice weighing 22-23 g are divided into five groups of 8-12 animals each. The animals belonging to the test groups (all groups except the control one) are treated for two days once a day with a 80 mg/kg p.o. dose of cyclophosphamide and the animals of three of the said groups are treated simultaneously with the administration of cyclophosphamide with a 0.1, 1.0 and 10 mg/kg s.c. dose, respectively, of Glp-Lys-NH2 -mandelate dissolved in a physiological soidum chloride solution. On the 3rd day of the test the yeast cell incorporating capacity of the PEC cells is determined. The x±S.E.M. values disclosed in the Table stand for the number of yeast cells incorporated by the 100 PEC cells. One proceeds as described in test a) except that the peptide is administered to the animals 6 hours after treatment with cyclophosphamide. The test is evaluated as described above.

[8] = system: PEC cells; assay: Phagocytosis inhibited by cyclophosphamide, simultaneously administered cyclophosphamide and peptide; format: in vivo, CFLP mice; settings: 2 days, CY alone 102.5 ± 4.8, control 186.3 ± 7.8
Experimental: as §1, with “cells.” for “cells. One proceeds as described in test a) except that the peptide is administered to the animals 6 hours after treatment with cyclophosphamide. The test is evaluated as described above.”

With Glp-Lys-NH2 [Peptide 1] the “Inhibition of the proliferation of K-562 cells, inhibition (c %)” value ([1]; peptide 1/ug/ml) was 20%, the “Inhibition of the proliferation of K-562 cells, inhibition (c %)” value ([1]; peptide 10/ug/ml) was 42% and the “No. of metastases in the lungs” value ([2]; treated animal No. 1, untreated control 15) was 0. The “No. of metastases in the lungs” value ([2]; treated animal No. 2, untreated control 20) was 2, the “No. of metastases in the lungs” value ([2]; treated animal No. 3, untreated control 16) was 1 and the “No. of metastases in the lungs” value ([2]; treated animal No. 4, untreated control 12) was 2. For the same substance, the “No. of metastases in the lungs” value ([2]; treated animal No. 5, untreated control 11) was 5, the “Inhibition of inflammation induced by oxozolone, inhibition as % of control” value ([3]; 1 mg/kg i.p.) was 62% and the “Inhibition of inflammation induced by oxozolone, inhibition as % of control” value ([3]; 2 mg/kg i.p.) was 61%. For the same substance, the “Restoration of primary immune answer, G %” value ([4]; peptide 5 mg/kg i.p. on 3rd day) was 123.8%, the “Restoration of primary immune answer, G %” value ([4]; peptide 50 mg/kg i.p. on 3rd day) was 133.3% and the “Relief of inhibition (R %) of E-rosetta forming activity” value ([5]; peptide 10^-3 mole/l) was 33.0%. For the same substance, the “Relief of inhibition (R %) of E-rosetta forming activity” value ([5]; peptide 10^-5 mole/l) was 9.9%, the “Relief of inhibition (R %) of E-rosetta forming activity” value ([5]; peptide 10^-7 mole/l) was 36.6% and the “Relief of inhibition (R %) of E-rosetta forming activity” value ([5]; peptide 10^-9 mole/l) was 25.0%. For the same substance, the “Relief of inhibition (R %) of E-rosetta forming activity” value ([5]; peptide 10^-11 mole/l) was 10.0%.
Glp-Lys-NH2 -mandelate was tested, and the “Phagocyte activity x ± S.E.M. (number of yeast cells incorporated into the 100 PEC cells)” value ([6]; 0.1 mg/kg s.c. once a day for 2 days) was 182.3 ± 3.5, the “Phagocyte activity x ± S.E.M. (number of yeast cells incorporated into the 100 PEC cells)” value ([6]; 1.0 mg/kg s.c. once a day for 2 days) was 209.3 ± 8.6 and the “Phagocyte activity x ± S.E.M. (number of yeast cells incorporated into the 100 PEC cells)” value ([6]; 10 mg/kg s.c. once a day for 2 days) was 244.8 ± 4.3. The “Phagocyte activity x ± S.E.M. (number of yeast cells incorporated by the 100 PEC cells)” value ([7]; peptide 0.1 mg/kg s.c. 6 hours after CY) was 226.5 ± 8.8, the “Phagocyte activity x ± S.E.M. (number of yeast cells incorporated by the 100 PEC cells)” value ([7]; peptide 1.0 mg/kg s.c. 6 hours after CY) was 252.2 ± 7.4 and the “Phagocyte activity x ± S.E.M. (number of yeast cells incorporated by the 100 PEC cells)” value ([7]; peptide 10 mg/kg s.c. 6 hours after CY) was 257.3 ± 9.3. For the same substance, the “Phagocyte activity x ± S.E.M. (number of yeast cells incorporated by the 100 PEC cells)” value ([8]; CY 80 mg/kg p.o. + peptide 0.1 mg/kg s.c. simultaneously) was 241.7 ± 20.3, the “Phagocyte activity x ± S.E.M. (number of yeast cells incorporated by the 100 PEC cells)” value ([8]; CY 80 mg/kg p.o. + peptide 1.0 mg/kg s.c. simultaneously) was 215.2 ± 21.5 and the “Phagocyte activity x ± S.E.M. (number of yeast cells incorporated by the 100 PEC cells)” value ([8]; CY 80 mg/kg p.o. + peptide 10 mg/kg s.c. simultaneously) was 164.4 ± 13.8.
